For the experiment, the system named is P388 leukemia ip, CD2F1 mice, survival T/C. In words: NCI In Vivo Anticancer Drug Screen. Data for tumor model P388 Leukemia (intraperitoneal) in CD2F1 (CDF1) mice. The note with it: endpoint: median survival time, higher = longer survival. The method in brief: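 Mice carrying the transplanted tumor received test compound or vehicle. Survival was recorded in each group, and the value is the treated-group measurement divided by that of the vehicle-treated control group.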

Where [1] appears, read: dose: 50.0 mg/kg/injection, schedule: Q01DX005 (ip), vehicle: saline with Tween-80.
Where [2] appears, read: dose: 100.0 mg/kg/injection, schedule: Q01DX005 (ip), vehicle: saline with Tween-80.
Where [3] appears, read: dose: 200.0 mg/kg/injection, schedule: Q01DX005 (ip), vehicle: saline with Tween-80.
Setting [4] is: dose: 25.0 mg/kg/injection, schedule: Q01DX009 (ip), vehicle: saline.
[5] abbreviates: dose: 50.0 mg/kg/injection, schedule: Q01DX009 (ip), vehicle: saline.
The mark [6] stands for this setting: dose: 200.0 mg/kg/injection, schedule: Q01DX009 (ip), vehicle: saline.
Setting [7] is: dose: 6.25 mg/kg/injection, schedule: Q01DX009 (ip), vehicle: saline.
Where [8] appears, read: dose: 12.5 mg/kg/injection, schedule: Q01DX009 (ip), vehicle: saline.
Where [9] appears, read: dose: 50.0 mg/kg/injection, schedule: Q01DX009 (ip), vehicle: saline with Tween-80.

Molecules are shown by their SMILES. Values joined by “and” are separate entries in the source; they are usually repeats but may differ in a detail not shown here. Equal values may be shown once. Toxic doses and inconclusive results are not listed.

`O=C1C=C(NCCC2CCCN3CCCCC23)C(=O)c2ccccc21` (stereo unspecified): the T/C is 98 % of control (dose: 12.5 mg/kg/injection, schedule: Q01DX001 (ip), vehicle: Klucel (hydroxypropylcellulose) (HPC)); 95 % of control (dose: 25.0 mg/kg/injection, schedule: Q01DX001 (ip), vehicle: Klucel (hydroxypropylcellulose) (HPC)); 100 % of control (dose: 50.0 mg/kg/injection, schedule: Q01DX001 (ip), vehicle: Klucel (hydroxypropylcellulose) (HPC)).
For `CN(C)N=Nc1ccc(S(=O)(=O)Nc2ncccn2)cc1`, the T/C runs as follows: (dose: 8.75 mg/kg/injection, schedule: Q01DX009 (ip), vehicle: saline with Tween-80) 107 % of control; (dose: 35.0 mg/kg/injection, schedule: Q01DX009 (ip), vehicle: saline with Tween-80) 160 % of control; (dose: 50.0 mg/kg/injection, schedule: Q04DX003 (ip), vehicle: saline with Tween-80) 96 % of control; (dose: 400.0 mg/kg/injection, schedule: Q04DX003 (ip), vehicle: saline with Tween-80) 111 % of control and 92 % of control.
As for `CCNC(=O)C(C)O` (stereo unspecified), the T/C runs as follows: (dose: 50.0 mg/kg/injection, schedule: Q01DX005 (ip), vehicle: saline) 102 % of control; (dose: 100.0 mg/kg/injection, schedule: Q01DX005 (ip), vehicle: saline) 102 % of control; (dose: 200.0 mg/kg/injection, schedule: Q01DX005 (ip), vehicle: saline) 98 % of control.
For `O=C1c2ccccc2-c2c1c1ccccc1c(=O)n2CCO`, the T/C runs as follows: under setting [1], 96 % of control; under setting [2], 94 % of control; under setting [3], 105 % of control.
As for `N#CCCOCN(COCCC#N)c1nc(N(COCCC#N)COCCC#N)nc(N(COCCC#N)COCCC#N)n1`, the T/C by setting is: (dose: 7.5 mg/kg/injection, schedule: Q01DX005 (ip), vehicle: DMSO) 97 % of control; (dose: 15.0 mg/kg/injection, schedule: Q01DX005 (ip), vehicle: DMSO) 94 % of control; (dose: 30.0 mg/kg/injection, schedule: Q01DX005 (ip), vehicle: DMSO) 94 % of control.
Turning to `Nc1cn(C2CC(O)C(CO)O2)c(=O)[nH]c1=O` (stereo unspecified), the T/C reads like this: under setting [4], 106 % of control; under setting [5], 105 % of control; (dose: 100.0 mg/kg/injection, schedule: Q01DX009 (ip), vehicle: saline) 105 % of control; under setting [6], 105 % of control.
For the molecule `C/C(=N\NC(=S)Nc1cccc2cccc(S(=O)(=O)O)c12)c1ccccn1`, the T/C under setting [1] is 102 % of control, the T/C under setting [2] is 100 % of control and the T/C under setting [3] was 112 % of control.
As to `CCCCCC(CN(C)C)C(=O)/C=C/c1ccccc1Cl` (stereo unspecified), the T/C by setting is: under setting [7], 104 % of control; under setting [8], 102 % of control; under setting [4], 93 % of control; under setting [5], 101 % of control.
Turning to `COc1cc(CCl)c(I)c(OC)c1OC`, the T/C is 103 % of control (dose: 100.0 mg/kg/injection, schedule: Q01DX001 (ip), vehicle: Klucel (hydroxypropylcellulose) (HPC)); 107 % of control (dose: 200.0 mg/kg/injection, schedule: Q01DX001 (ip), vehicle: Klucel (hydroxypropylcellulose) (HPC)); 102 % of control (dose: 400.0 mg/kg/injection, schedule: Q01DX001 (ip), vehicle: Klucel (hydroxypropylcellulose) (HPC)).
On to `C=C1C(=O)OC2CC3=CCC(OC3=O)/C(C)=C\CC12` (stereo unspecified), for which the T/C reads like this: (dose: 21.5 mg/kg/injection, schedule: Q01DX005 (ip), vehicle: Klucel (hydroxypropylcellulose) (HPC)) 118 % of control; (dose: 43.0 mg/kg/injection, schedule: Q01DX005 (ip), vehicle: Klucel (hydroxypropylcellulose) (HPC)) 116 % of control; (dose: 86.0 mg/kg/injection, schedule: Q01DX005 (ip), vehicle: Klucel (hydroxypropylcellulose) (HPC)) 108 % of control.
For the molecule `CC(=O)c1cc(Cl)ccc1OCC(O)CNc1ccc(Cl)cc1C(=O)c1ccccc1` (stereo unspecified), the T/C reads like this: (dose: 60.0 mg/kg/injection, schedule: Q01DX005 (ip), vehicle: saline with Tween-80) 90 % of control; (dose: 120.0 mg/kg/injection, schedule: Q01DX005 (ip), vehicle: saline with Tween-80) 92 % of control; (dose: 240.0 mg/kg/injection, schedule: Q01DX005 (ip), vehicle: saline with Tween-80) 86 % of control.
Take `COC(=O)C12OCC34C(CC5C(C)C6=CC(=O)OC6=CC5(C)C3C(O)C1O)OC(=O)C(O)C24` (stereo unspecified): the T/C reads like this: (dose: 0.63 mg/kg/injection, schedule: Q01DX005 (ip), vehicle: Klucel (hydroxypropylcellulose) (HPC)) 150 % of control; (dose: 1.25 mg/kg/injection, schedule: Q01DX005 (ip), vehicle: Klucel (hydroxypropylcellulose) (HPC)) 169 % of control.
On to `COc1ccc(/C=C(/C)[N+](=O)[O-])cc1OC`, for which the T/C (dose: 22.0 mg/kg/injection, schedule: Q01DX009 (ip), vehicle: saline with Tween-80) is 109 % of control; the T/C (dose: 33.0 mg/kg/injection, schedule: Q01DX009 (ip), vehicle: saline with Tween-80) is 109 % of control; the T/C under setting [9] is 109 % of control; the T/C (dose: 75.0 mg/kg/injection, schedule: Q01DX009 (ip), vehicle: saline with Tween-80) was 118 % of control; the T/C under setting [6] was 100 % of control.
`Cc1nnc2sc(-c3cccc(Cl)c3)nn2c1=O`: the T/C is 102 % of control (dose: 50.0 mg/kg/injection, schedule: Q04DX002 (ip), vehicle: Klucel (hydroxypropylcellulose) (HPC)); 100 % of control (dose: 100.0 mg/kg/injection, schedule: Q04DX002 (ip), vehicle: Klucel (hydroxypropylcellulose) (HPC)); 100 % of control (dose: 200.0 mg/kg/injection, schedule: Q04DX002 (ip), vehicle: Klucel (hydroxypropylcellulose) (HPC)).
On to `CCC1CN2C(=N1)c1ccccc1-c1cc(Cl)ccc12` (stereo unspecified), for which the T/C is, setting by setting: (dose: 5.0 mg/kg/injection, schedule: Q01DX009 (ip), vehicle: saline) 106 % of control; under setting [7], 101 % of control and 102 % of control and 90 % of control; (dose: 10.0 mg/kg/injection, schedule: Q01DX009 (ip), vehicle: saline) 121 % of control and 124 % of control; under setting [8], 103 % of control and 106 % of control and 97 % of control; (dose: 20.0 mg/kg/injection, schedule: Q01DX009 (ip), vehicle: saline) 117 % of control; under setting [4], 101 % of control (2×) and 108 % of control. Moreover, the T/C was 156 % of control (dose: 40.0 mg/kg/injection, schedule: Q01DX009 (ip), vehicle: saline); 103 % of control and 123 % of control and 94 % of control under setting [5].
`c1ccc([P+](Cc2ccc(C[P+](c3ccccc3)(c3ccccc3)c3ccccc3)cc2)(c2ccccc2)c2ccccc2)cc1`: the T/C is, setting by setting: (dose: 0.07 mg/kg/injection, schedule: Q01DX009 (ip), vehicle: saline sonified) 90 % of control; (dose: 0.15 mg/kg/injection, schedule: Q01DX009 (ip), vehicle: saline sonified) 95 % of control; (dose: 0.3 mg/kg/injection, schedule: Q01DX009 (ip), vehicle: saline sonified) 90 % of control; (dose: 0.6 mg/kg/injection, schedule: Q01DX009 (ip), vehicle: saline sonified) 100 % of control.
As for `COC(=O)C1(CC(=O)C=C(C)C)NC(=S)NC(=O)C1C#N` (stereo unspecified), the T/C is, setting by setting: (dose: 60.0 mg/kg/injection, schedule: Q01DX005 (ip), vehicle: saline) 98 % of control; (dose: 120.0 mg/kg/injection, schedule: Q01DX005 (ip), vehicle: saline) 103 % of control; (dose: 240.0 mg/kg/injection, schedule: Q01DX005 (ip), vehicle: saline) 98 % of control.
Consider `C=C1C(=O)OC2C(OC(=O)CC)CCCC12` (stereo unspecified), for which the T/C was 95 % of control (dose: 60.0 mg/kg/injection, schedule: Q01DX005 (ip), vehicle: Klucel (hydroxypropylcellulose) (HPC)); 98 % of control (dose: 120.0 mg/kg/injection, schedule: Q01DX005 (ip), vehicle: Klucel (hydroxypropylcellulose) (HPC)); 110 % of control (dose: 240.0 mg/kg/injection, schedule: Q01DX005 (ip), vehicle: Klucel (hydroxypropylcellulose) (HPC)).
In the case of `Cc1ccc(C)c(C2NC(=O)c3ccccc3N2)c1` (stereo unspecified), the T/C (dose: 25.0 mg/kg/injection, schedule: Q01DX009 (ip), vehicle: saline with Tween-80) is 104 % of control; the T/C under setting [9] is 104 % of control; the T/C (dose: 100.0 mg/kg/injection, schedule: Q01DX009 (ip), vehicle: saline with Tween-80) was 101 % of control; the T/C (dose: 200.0 mg/kg/injection, schedule: Q01DX009 (ip), vehicle: saline with Tween-80) was 112 % of control.
For `NC1=NN(S(=O)(=O)c2ccc(Br)cc2)CC1`, the T/C was 89 % of control (dose: 50.0 mg/kg/injection, schedule: Q01DX005 (ip), vehicle: Klucel (hydroxypropylcellulose) (HPC)); 94 % of control (dose: 100.0 mg/kg/injection, schedule: Q01DX005 (ip), vehicle: Klucel (hydroxypropylcellulose) (HPC)); 89 % of control (dose: 200.0 mg/kg/injection, schedule: Q01DX005 (ip), vehicle: Klucel (hydroxypropylcellulose) (HPC)).

The values are drawn from PubChem BioAssay AID330 (DTP/NCI, 2004).
